From BigSolDB 2.1

O=C(/C=C/c1cn(-c2ccccc2)nc1-c1cccc([N+](=O)[O-])c1)c1nc2ccccc2[nH]1
solubility (mole fraction)
Settings | in acetonitrile | in ethanol | in ethyl acetate | in methanol | in n-butanol | in n-pentanol | in n-propanol
298.15 K | 0.000103 | 5.53e-05 | 0.0013 | 4.04e-05 | 0.000202 | 0.000281 | 0.000115
303.15 K | 0.000123 | 6.2e-05 | 0.00149 | 4.85e-05 | 0.000236 | 0.000326 | 0.000135
308.15 K | 0.000148 | 7.01e-05 | 0.0017 | 5.5e-05 | 0.000279 | 0.000368 | 0.000164
313.15 K | 0.000163 | 8.42e-05 | 0.00194 | 5.9e-05 | 0.000324 | 0.000424 | 0.000175
318.15 K | 0.00019 | 9.46e-05 | 0.00217 | 6.59e-05 | 0.000359 | 0.000455 | 0.000206
323.15 K | 0.000216 | 0.000103 | 0.00244 | 7.4e-05 | 0.000402 | 0.000513 | 0.000226
328.15 K | 0.000232 | 0.000119 | 0.00277 | 8.21e-05 | 0.000445 | 0.000557 | 0.000251

O=C(/C=C/c1cn(-c2ccccc2)nc1-c1ccc(Cl)cc1)c1nc2ccccc2[nH]1
solubility (mole fraction)
Settings | in acetonitrile | in ethanol | in ethyl acetate | in methanol | in n-butanol | in n-pentanol | in n-propanol
298.15 K | 0.000116 | 0.000102 | 0.000257 | 4.06e-05 | 0.00015 | 0.000253 | 8.35e-05
303.15 K | 0.000135 | 0.000113 | 0.00029 | 5.1e-05 | 0.000175 | 0.000275 | 0.000103
308.15 K | 0.000153 | 0.00012 | 0.000328 | 6.74e-05 | 0.000201 | 0.000304 | 0.000121
313.15 K | 0.000171 | 0.000132 | 0.000385 | 7.9e-05 | 0.000216 | 0.000354 | 0.000132
318.15 K | 0.000182 | 0.000148 | 0.000432 | 9.36e-05 | 0.00024 | 0.000387 | 0.00015
323.15 K | 0.000193 | 0.000155 | 0.000482 | 0.000105 | 0.000258 | 0.000423 | 0.000158
328.15 K | 0.000211 | 0.000172 | 0.000526 | 0.000117 | 0.000295 | 0.000442 | 0.000167

O=C(/C=C/c1cn(-c2ccccc2)nc1-c1ccccc1)c1nc2ccccc2[nH]1
solubility (mole fraction)
Settings | in acetonitrile | in ethanol | in ethyl acetate | in methanol | in n-butanol | in n-pentanol | in n-propanol
298.15 K | 5.71e-05 | 8.48e-05 | 0.000159 | 5.54e-05 | 0.000248 | 0.000257 | 0.000135
303.15 K | 6.5e-05 | 9.4e-05 | 0.000195 | 6.53e-05 | 0.000275 | 0.000332 | 0.000152
308.15 K | 7.61e-05 | 0.000106 | 0.000243 | 8.08e-05 | 0.000299 | 0.000406 | 0.000179
313.15 K | 9.3e-05 | 0.000123 | 0.000312 | 8.83e-05 | 0.000335 | 0.000475 | 0.000189
318.15 K | 0.000102 | 0.000135 | 0.000362 | 9.87e-05 | 0.000374 | 0.000535 | 0.000215
323.15 K | 0.00012 | 0.000146 | 0.000403 | 0.000115 | 0.000425 | 0.000592 | 0.000226
328.15 K | 0.000132 | 0.00016 | 0.000463 | 0.000123 | 0.000465 | 0.000639 | 0.000255

COc1cccc(-c2nn(-c3ccccc3)cc2/C=C/C(=O)c2nc3ccccc3[nH]2)c1
solubility (mole fraction)
Settings | in acetonitrile | in ethanol | in ethyl acetate | in methanol | in n-butanol | in n-pentanol | in n-propanol
298.15 K | 2.91e-05 | 7.24e-05 | 0.000241 | 2.71e-05 | 0.00017 | 0.000227 | 0.000126
303.15 K | 4.16e-05 | 8.5e-05 | 0.000256 | 3.15e-05 | 0.000185 | 0.000274 | 0.000145
308.15 K | 5.87e-05 | 0.000106 | 0.000274 | 3.63e-05 | 0.000211 | 0.000312 | 0.000166
313.15 K | 7.62e-05 | 0.000121 | 0.000292 | 4.12e-05 | 0.00023 | 0.000381 | 0.000187
318.15 K | 9.21e-05 | 0.000136 | 0.000317 | 4.62e-05 | 0.000258 | 0.000427 | 0.000206
323.15 K | 0.000111 | 0.000148 | 0.000336 | 5.15e-05 | 0.000285 | 0.000457 | 0.000231
328.15 K | 0.000122 | 0.000165 | 0.000365 | 5.81e-05 | 0.000311 | 0.000499 | 0.000245
